Test results reported in the supplement of paper PMC10132981, “Formate overflow drives toxic folate trapping in MTHFD1 inhibited cancer cells” (Nature Metabolism, 2023).
± gives the standard deviation of the averaged measurements.

Key:
Assay in all cases: EC50 for viability (resazurin, 96 h)
SW620 MTHFD2 -/- = test system: SW620 MTHFD2 -/-
HCT116 = settings: RPMI+GlutaMAX (10% FBS, 1% P/S)
SW620 WT = test system: SW620 WT
SW620 MTHFD2-/- = settings: RPMI+GlutaMAX (5% dFBS, 1% P/S)
SW620 = test system: SW620

Nc1nc(N)c(CC(=O)Nc2cnc(C(=O)N[C@@H](CCC(=O)O)C(=O)O)c(F)c2)c(=O)[nH]1 [TH9619]
Settings	EC50 for viability [µM]
SW620 MTHFD2 -/-, RPMI+GlutaMAX (5% dFBS, 1% P/S), metabolite supplement: Hypoxanthine	0.025
SW620 MTHFD2 -/-, RPMI+GlutaMAX (5% dFBS, 1% P/S), metabolite supplement: Sodium Formate	0.00643
SW620 MTHFD2 -/-, RPMI+GlutaMAX (5% dFBS, 1% P/S), metabolite supplement: Thymidine	0.000821 ± 0.0006
SW620 MTHFD2 -/-, RPMI+GlutaMAX (5% dFBS, 1% P/S), metabolite supplement: Thymidine + Sodium Formate	> 10
SW620 MTHFD2 -/-, RPMI+GlutaMAX (5% dFBS, 1% P/S), metabolite supplement: Vehicle	0.00103 ± 0.00077
SW620 MTHFD2 -/-, RPMI+GlutaMAX (10% FBS, 1% P/S), metabolite supplement: None	0.00282
SW620 MTHFD2 -/-, RPMI+GlutaMAX (10% dFBS, 1% P/S), metabolite supplement: None	0.993
SW620 WT, RPMI+GlutaMAX (5% dFBS, 1% P/S), metabolite supplement: Adenine	0.0189
SW620 WT, RPMI+GlutaMAX (5% dFBS, 1% P/S), metabolite supplement: Adenosine	0.0183
SW620 WT, RPMI+GlutaMAX (5% dFBS, 1% P/S), metabolite supplement: Guanosine	0.0242
SW620 WT, RPMI+GlutaMAX (5% dFBS, 1% P/S), metabolite supplement: Hypoxanthine	0.0195 ± 0.0047
SW620 WT, RPMI+GlutaMAX (5% dFBS, 1% P/S), metabolite supplement: Hypoxanthine + AICAr 10 µM	0.0197
SW620 WT, RPMI+GlutaMAX (5% dFBS, 1% P/S), metabolite supplement: Hypoxanthine + AICAr 30 µM	0.0303
SW620 WT, RPMI+GlutaMAX (5% dFBS, 1% P/S), metabolite supplement: Hypoxanthine + AICAr 50 µM	0.0759
SW620 WT, RPMI+GlutaMAX (5% dFBS, 1% P/S), metabolite supplement: Hypoxanthine + AICAr 100 µM	1.67
SW620 WT, RPMI+GlutaMAX (5% dFBS, 1% P/S), metabolite supplement: Sodium Formate	0.944
SW620 WT, RPMI+GlutaMAX (5% dFBS, 1% P/S), metabolite supplement: Thymidine	1.9 ± 1.3
SW620 WT, RPMI+GlutaMAX (5% dFBS, 1% P/S), metabolite supplement: Thymidine + Sodium Formate	> 10
SW620 WT, RPMI+GlutaMAX (5% dFBS, 1% P/S), metabolite supplement: Vehicle	0.861 ± 0.38
SW620 WT, RPMI+GlutaMAX (5% dFBS, 1% P/S, 10 uM Hypoxanthine), metabolite supplement: Thymidine 0.1 uM	0.0189
SW620 WT, RPMI+GlutaMAX (5% dFBS, 1% P/S, 10 uM Hypoxanthine), metabolite supplement: Thymidine 0.5 uM	0.0669
SW620 WT, RPMI+GlutaMAX (5% dFBS, 1% P/S, 10 uM Hypoxanthine), metabolite supplement: Thymidine 1uM	3.91
SW620 WT, RPMI+GlutaMAX (5% dFBS, 1% P/S, 10 uM Hypoxanthine), metabolite supplement: Thymidine 5uM	> 10
SW620 WT, RPMI+GlutaMAX (5% dFBS, 1% P/S, 10 uM Hypoxanthine), metabolite supplement: Thymidine 10 uM	> 10
SW620 WT, RPMI+GlutaMAX (5% dFBS, 1% P/S, 10 uM Hypoxanthine), metabolite supplement: Thymidine 25 uM	> 10
SW620 WT, RPMI+GlutaMAX (5% dFBS, 1% P/S, 10 uM Hypoxanthine), metabolite supplement: Thymidine 50 uM	> 10
SW620 WT, RPMI+GlutaMAX (5% dFBS, 1% P/S, 50 uM Hypoxanthine), metabolite supplement: Thymidine 0.1 uM	0.0174
SW620 WT, RPMI+GlutaMAX (5% dFBS, 1% P/S, 50 uM Hypoxanthine), metabolite supplement: Thymidine 0.5 uM	0.0263
SW620 WT, RPMI+GlutaMAX (5% dFBS, 1% P/S, 50 uM Hypoxanthine), metabolite supplement: Thymidine 1uM	0.0319
SW620 WT, RPMI+GlutaMAX (5% dFBS, 1% P/S, 50 uM Hypoxanthine), metabolite supplement: Thymidine 5uM	> 10
SW620 WT, RPMI+GlutaMAX (5% dFBS, 1% P/S, 50 uM Hypoxanthine), metabolite supplement: Thymidine 10 uM	> 10
SW620 WT, RPMI+GlutaMAX (5% dFBS, 1% P/S, 50 uM Hypoxanthine), metabolite supplement: Thymidine 25 uM	> 10
SW620 WT, RPMI+GlutaMAX (5% dFBS, 1% P/S, 50 uM Hypoxanthine), metabolite supplement: Thymidine 50 uM	> 10
SW620 WT, RPMI+GlutaMAX (10% FBS, 1% P/S), metabolite supplement: None	0.0329
SW620 WT, RPMI+GlutaMAX (10% dFBS, 1% P/S), metabolite supplement: None	0.00493
SW620, HPLM (5% dFBS, 1% P/S), metabolite supplement: Vehicle	0.0113
SW620, RPMI+GlutaMAX (5% FBS, 1% P/S), metabolite supplement: Vehicle	0.0249
SW620, RPMI+GlutaMAX (5% dFBS, 1% P/S), metabolite supplement: 0 nM Pyrazofurin	1.03
SW620, RPMI+GlutaMAX (5% dFBS, 1% P/S), metabolite supplement: 25 nM Pyrazofurin	1.16
SW620, RPMI+GlutaMAX (5% dFBS, 1% P/S), metabolite supplement: 50 nM Pyrazofurin	0.365
SW620, RPMI+GlutaMAX (5% dFBS, 1% P/S), metabolite supplement: 0.5 µM Hypoxanthine	0.287
SW620, RPMI+GlutaMAX (5% dFBS, 1% P/S), metabolite supplement: 1.0 µM Hypoxanthine	0.0755
SW620, RPMI+GlutaMAX (5% dFBS, 1% P/S), metabolite supplement: 5.0 µM Hypoxanthine	0.0141
SW620, RPMI+GlutaMAX (5% dFBS, 1% P/S), metabolite supplement: 10 µM Hypoxanthine	0.0132
SW620, RPMI+GlutaMAX (5% dFBS, 1% P/S), metabolite supplement: 12,5 nM Pyrazofurin	1.42
SW620, RPMI+GlutaMAX (5% dFBS, 1% P/S), metabolite supplement: 25 µM Hypoxanthine	0.0146
SW620, RPMI+GlutaMAX (5% dFBS, 1% P/S), metabolite supplement: 50 µM Hypoxanthine	0.0139 ± 0.0022
SW620, RPMI+GlutaMAX (5% dFBS, 1% P/S), metabolite supplement: Allopurinol	0.312
SW620, RPMI+GlutaMAX (5% dFBS, 1% P/S), metabolite supplement: Allopurinol + Hypoxanthine	0.0155
SW620, RPMI+GlutaMAX (5% dFBS, 1% P/S), metabolite supplement: Deoxyuridine	0.267
SW620, RPMI+GlutaMAX (5% dFBS, 1% P/S), metabolite supplement: Deoxyuridine + Hypoxanthine	0.00978
SW620, RPMI+GlutaMAX (5% dFBS, 1% P/S), metabolite supplement: Febuxostat	0.766
SW620, RPMI+GlutaMAX (5% dFBS, 1% P/S), metabolite supplement: Febuxostat + Hypoxanthine	0.0252
SW620, RPMI+GlutaMAX (5% dFBS, 1% P/S), metabolite supplement: H2O2	0.406
SW620, RPMI+GlutaMAX (5% dFBS, 1% P/S), metabolite supplement: H2O2 + Hypoxanthine	0.0163
SW620, RPMI+GlutaMAX (5% dFBS, 1% P/S), metabolite supplement: Hypoxanthine	0.0154 ± 0.0021
SW620, RPMI+GlutaMAX (5% dFBS, 1% P/S), metabolite supplement: Orotic acid	0.309
SW620, RPMI+GlutaMAX (5% dFBS, 1% P/S), metabolite supplement: Orotic acid + Hypoxanthine	0.0128
SW620, RPMI+GlutaMAX (5% dFBS, 1% P/S), metabolite supplement: Uric acid	0.502
SW620, RPMI+GlutaMAX (5% dFBS, 1% P/S), metabolite supplement: Vehicle	0.4 ± 0.15
SW620, RPMI+GlutaMAX (5% dFBS, 1% P/S, 50 µM Hypoxanthine), metabolite supplement: 0	0.0133
SW620, RPMI+GlutaMAX (10% FBS, 1% P/S), metabolite supplement: Folic acid	4
SW620, RPMI+GlutaMAX (10% FBS, 1% P/S), metabolite supplement: Folinic acid	> 10
SW620, RPMI+GlutaMAX (10% FBS, 1% P/S), metabolite supplement: Hypoxanthine	0.0136
SW620, RPMI+GlutaMAX (10% FBS, 1% P/S), metabolite supplement: Sodium Formate	0.0153
SW620, RPMI+GlutaMAX (10% FBS, 1% P/S), metabolite supplement: Thymidine	0.516 ± 0.078
SW620, RPMI+GlutaMAX (10% FBS, 1% P/S), metabolite supplement: Thymidine + Folic acid	8.88
SW620, RPMI+GlutaMAX (10% FBS, 1% P/S), metabolite supplement: Thymidine + Sodium Formate	0.538
SW620, RPMI+GlutaMAX (10% FBS, 1% P/S), metabolite supplement: Vehicle	0.0226 ± 0.0034

EC50 for viability [µM]
Settings	metabolite supplement: Hypoxanthine	metabolite supplement: Hypoxanthine + Formate	metabolite supplement: Thymidine
HCT116	0.0135	–	1.19
SW620 MTHFD2-/-	4.23	0.0301	–
